Here are results for seven molecules from patent US8338472B2, “Hexahydrocyclopentyl[F]indazole carboxamides and derivatives thereof as selective glucocorticoid receptor modulators” (Merck Sharp & Dohme Corp., priority 2008, dated 2012).

Where two headings read alike, the source gives them in different places.

One assay addresses T1, Glucocorticoid Receptor (Homo sapiens, UniProt P04150).
T1 construct: These cells express large amount of the GR and are very responsive to GC treatment; endogenous in cells; host or cells: A549 cells transiently transfected with the MMTV-LUC reporter
T1 sequence (P04150 1-777): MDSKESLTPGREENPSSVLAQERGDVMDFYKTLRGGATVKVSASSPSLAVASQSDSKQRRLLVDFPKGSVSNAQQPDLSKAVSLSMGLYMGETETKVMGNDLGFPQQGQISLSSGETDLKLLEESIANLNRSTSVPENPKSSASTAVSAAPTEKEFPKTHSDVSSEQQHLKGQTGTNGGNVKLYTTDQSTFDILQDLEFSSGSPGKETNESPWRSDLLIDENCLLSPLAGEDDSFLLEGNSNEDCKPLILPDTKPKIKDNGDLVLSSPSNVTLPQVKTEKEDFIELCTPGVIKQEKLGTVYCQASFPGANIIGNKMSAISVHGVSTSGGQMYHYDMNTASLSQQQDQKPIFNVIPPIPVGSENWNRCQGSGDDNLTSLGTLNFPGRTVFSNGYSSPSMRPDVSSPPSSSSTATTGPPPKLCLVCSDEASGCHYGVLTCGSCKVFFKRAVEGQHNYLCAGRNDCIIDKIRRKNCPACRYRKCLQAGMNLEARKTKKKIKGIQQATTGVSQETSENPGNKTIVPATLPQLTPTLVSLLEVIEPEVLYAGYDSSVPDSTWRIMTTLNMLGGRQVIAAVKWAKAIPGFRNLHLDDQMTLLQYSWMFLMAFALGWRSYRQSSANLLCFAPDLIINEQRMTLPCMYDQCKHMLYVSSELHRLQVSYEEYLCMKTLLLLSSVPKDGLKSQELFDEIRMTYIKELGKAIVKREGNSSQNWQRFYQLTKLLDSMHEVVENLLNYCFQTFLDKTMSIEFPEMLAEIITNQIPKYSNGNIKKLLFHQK
Kind of assay: Trans-Activation Modulation of Glucocorticoid Receptor (GRAMMER), MMTV-LUC reporter gene in A549 cells. The assay is classed as cell-based. To be noted: Table 1; for Emax: A549, A549 cells, Emax relative to 300 nM dexamethasone, read-out: Transactivation A549 Cells GRAMMER Emax; for EC50: inflection point, A549 cells, read-out: Transactivation A549 Cells GRAMMER IP. The text has this: Trans-Activation Modulation of Glucocorticoid Receptor (GRAMMER)
This assay assesses the ability of test compounds to control transcription from the MMTV-LUC reporter gene in lung adenocarcinoma A549 cells or MDA-MB-453 cells, a human breast cancer cell line that naturally expresses the human GR. The assay measures induction of a modified MMTV LTR/promoter linked to the LUC reporter gene.
The routine transient assay consists of plating 7,000-25,000 cells/well of a white, clear-bottom 96-well plate. Alternatively, 384-well plates can be used at a cell concentration of 10,000/well. The media that the cells are plated in is “exponential growth medium” which consists of phenol red-free RPMI1640 containing 10% FBS, 4 mM L-glutamine, 20 mM HEPES, 10 ug/mL human insulin, and 20 ug/mL gentamicin. Incubator conditions are 37° C. and 5% CO2. The transfection is done in batch mode. The cells are trypsinized and counted to the right cell number in the proper amount of fresh media. It is then gently mixed with the FuGene6/DNA mix and plated onto the 96 or 384-well plate, all the wells receive 100 uL or 40 uL, respectively, of medium+lipid/DNA complex then incubated 37° C. overnight. The transfection cocktail consists of serum-free OptiMEM, FuGene6 reagent and DNA. The manufacturer's (Roche Biochemical) protocol for cocktail setup is as follows: The lipid to DNA ratio is approximately 2.5:1 and the incubation time is 20 min at room temperature. Sixteen to 24 hours after transfection, the cells are treated with dexamethasone to a final concentration of 10 nM as well as the compound of interest, such that final DMSO (vehicle) concentration is equal to or less than 1%. Each plate also contains samples that are treated with 10 nM dexamethasone alone, which is used as the 100% activity control. The cells are exposed to the compounds for 24 hours. After 24 hours, the cells are lysed by a Promega cell culture lysis buffer for approximately 30 min and then the luciferase activity in the extracts is assayed in the 96-well format luminometer. In 384-well format, Steady-Glo (Promega) or Steady-Lite (PerkinElmer) can be used by adding an equal volume of reagent to the media present in each well. Activity induced by 10 nM dexamethasone alone is set at 100% activity. Antagonist activity is calculated by determining the decrease in dexamethasone-induced activity in response to compound treatment relative to samples that were treated with dexamethasone alone. […] This transactivation assay can be performed in an agonist and antagonist mode to identify these different activities.
Activity of test compounds is calculated as the Emax relative to the activity obtained with 300 nM dexamethasone. Activity of test compounds is calculated as the Emax relative to the activity obtained with 300 nM DEX. […] The action of compounds is also tested in an antagonist mode (Anti-GRAMMER) in which the cells are treated with medium containing an agonist such as 10 nM DEX and the ability to agents to inhibit the activation by an agonist is measured.
A general note: Reporter assays use an easily measured gene product as a stand-in for the process of interest.

A further assay has as its target T2, human GR (Homo sapiens, UniProt P04150).
T2 construct: U937 cells contain an endogenous glucocorticoid receptor (GR); endogenous in cells; host or cells: U937 cells stably transfected with the TNF-alpha promoter/beta-lactamase reporter
T2 sequence (P04150 1-777): T1 sequence (P04150 1-777)
Briefly: Transrepression Assay (GITAR), TNFα-β-lactamase reporter gene in U937 cells. The assay is classed as cell-based. To be noted: for GITAR Greater than by GRAMMER % SEP: GITAR Emax minus GRAMMER Emax; for EC50: inflection point, U937 cells, read-out: Transrepression U937 Cells GITAR IP. The source says: Transrepression Assay (GITAR)
This assay assesses the ability of test compounds to control transcription from the TNFα-β-lactamase reporter gene in U937 cells, a human myelomonocytic leukemia cell line that naturally expresses the human GR. The assay measures compound dependent-repression of the TNFa promoter linked to a reporter gene.
The human U937 cells that had been stablely transfected with the TNF-α promoter driving β-lactamase are used for this assay. U937 cells contain an endogenous glucocorticoid receptor (GR). Cells are maintained in RPMI 1640 Growth medium (Gibco Cat#11875-093) containing 25 mM HEPES, 10% FBS, 2 mM L-Glutamine, 1 mM Sodium pyruvate, 25 μg/ml Gentamicin (Gibco Cat#15710-064), 1:1000 2-Mercaptoethanol (Gibco Cat#21985-023) and 0.8 mg/ml G418 (Gibco Cat#10131-027). The density of the cells in the flask needs to be about 1×10^6−3×10^6/ml at the time of harvest. Usually, the cells are split to 1.2˜1.4×10^5/ml (1:10) 3 days prior to the assay. 50,000 cells/well are plated in 96 well black-walled plates the day of assay. Test compounds are added 10 pt/well, and cells are incubated at 37° C. for 30-45 min. For assaying compounds, first dilute 1:10 in DMSO to make 1 mM, then further dilute 1:100 in medium to make 10× stock prior to adding to the cells. Add 50 ng/ml PMA (Sigma, cat# P8139) 10 μL/well to a final concentration 5 ng/ml, and 1 μg/ml LPS (Sigma, cat# L4130) 10 μL/well to a final concentration 100 ng/ml. Incubate cells at 37° C. overnight for ˜18 hr. PMA is stored frozen as 100 μg/ml stock in DMSO. Dilute 1:10 in DMSO for a working stock of 10 μg/ml and store at −20C. For assaying, dilute the […] working stock 1:200 in medium to make a 10× solution (50 ng/ml). Store frozen LPS at 1 mg/ml in PBS, dilute 1:1000 in medium to make 10× (1 μg/ml) for the assay. Add 6× loading buffer (CCF2−AM) 20 μL/well, and incubate at room temperature for 70-90 min. […] The activity repressed by 100 nM dexamethasone alone is set as 100% activity.

Assay [1] deals with T3, glucocorticoid receptor (GR) (Homo sapiens, UniProt P04150).
T3 sequence (P04150 1-777): T1 sequence (P04150 1-777)
Briefly: Ligand binding assay (GR BIND), 3H-dexamethasone displacement in MDA-MB-453 cell lysate. To be noted: GR BIND Ki, Table 1.
Method: Binding Buffer: TEGM (10 mM Tris-HCl, 1 mM EDTA, 10% glycerol, 1 mM beta-mecaptoethanol, 10 mM Sodium Molybdate, pH 7.2)
50% HAP Slurry: Calbiochem Hydroxylapatite, Fast Flow, in 10 mM Tris, pH 8.0 and 1 mM EDTA.
Wash Buffer: 40 mM Tris, pH7.5, 100 mM KCl, 1 mM EDTA and 1 mM EGTA.
Dexmethasone-methyl-^3H, (DEX*); (Amersham cat# TRK645)
Dexamethasone(DEX) (Sigma, cat# D1756):
The cell pellet is washed twice with TEGM (10 mM Tris-HCl, 1 mM EDTA, 10% glycerol, 1 mM beta-mercaptoethanol, 10 mM Sodium Molybdate, pH 7.2). After the final wash, the cells are resuspended in TEGM at a concentration of 10^7 cells/mL. The cell suspension is snap frozen in liquid nitrogen or ethanol/dry ice bath and transferred to −80° C. freezer on dry ice. Before setting up the binding assay, the frozen samples are left on ice-water to just thaw (˜1 hr). Then the samples are centrifuged at 12,500 g to 20,000 g for 30 min at 4° C. The supernatant is used to set-up assay right away. If using 50 μL of supernatant, the test compound can be prepared in 50 μL of the TEGM buffer.
Procedure for Multiple Compound Screening
1×TEGM buffer is prepared, and the isotope-containing assay mixture is prepared in the following order: EtOH (2% final concentration in reaction), ^3H-DEX (Amersham Biosciences) and 1×TEGM. [e.g. For 100 samples, 200 μL (100×2) of EtOH+4.25 μL of 1:10 ^3H-Dex stock+2300 μL (100×23) 1×TEGM]. The compound is serially diluted, e.g., if starting final conc. is 1 μM, and the compound is in 25 μL of solution, for duplicate samples, 75 μL of 4×1 μM solution is made and 3 μL of 100 μM is added to 72 μL of buffer, and 1:5 serial dilution.
25 μL of ^3H-DEX (6 nM) trace and 25 μL compound solution are first mixed together, followed by addition of 50 μL receptor solution. The reaction is gently mixed, spun briefly at about 200 rpm and incubated at 4° C. overnight. 100 μL of 50% HAP slurry is prepared and added to the incubated reaction which is then vortexed and incubated on ice for 5 to 10 minutes. The reaction mixture is vortexed twice more to resuspend HAP while incubating reaction. The samples in 96-well format are then washed in wash buffer using The FilterMate™ Universal Harvester plate washer (Packard). The washing process transfers HAP pellet containing ligand-bound expressed receptor to Unifilter-96 GF/B filter plate (Packard). The HAP pellet on the filter plate is incubated with 50 μL of MICROSCINT (Packard) scintillint for 30 minutes before being counted on the TopCount microscintillation counter (Packard). IC50s are calculated using DEX as a reference.

Where [2] appears, read: U-937, U937 cells, activity repressed by 100 nM dexamethasone = 100%, Table 1, read-out: Transrepression U937 Cells GITAR Emax.
Setting [3] is: U-937, text statement, 100 nM dexamethasone = 100%, read-out: maximal activity in the transrepression assay (GITAR).

Consider `C[C@]12Cc3cnn(-c4ccc(F)cc4)c3C=C1CC[C@@H]2C(=O)N(Cc1ccc(Cl)cc1Cl)CC1CC1` [Compound 7, (4αR,5S)-N-(cyclopropylmethyl)-N-(2,4-dichlorobenzyl)-1-(4-fluorophenyl)-4α-methyl-1,4,4α,5,6,7-hexahydrocyclopenta[f]indazole-5-carboxamide], for which the Emax at Glucocorticoid Receptor was 13.4%; at human GR (setting [2]), 18.2%; at human GR (setting [3]), above 5%. Further, the EC50 on Glucocorticoid Receptor worked out at 1400 nM; on human GR (Table 1), 586 nM. Besides, the “GITAR Greater than by GRAMMER % SEP” value at human GR (Table 1) came to 4.8%. Besides, in assay [1], the Ki (usually a dissociation constant, usually derived from enzyme kinetics or from competition with a known ligand) turned out to be 1.3 nM.

With `CC(C)CCN(CCC(C)C)C(=O)[C@H]1CCC2=Cc3c(cnn3-c3ccc(F)cc3)C[C@@]21C` [Compound 8, (4αR,5S)-1-(4-fluorophenyl)-4α-methyl-N,N-bis(3-methylbutyl)-1,4,4α,5,6,7-hexahydrocyclopenta[f]indazole-5-carboxamide], the results for the Emax on Glucocorticoid Receptor, at human GR (setting [2]) and at human GR (setting [3]) were 5.6%, 18% and above 5%, respectively. Further, the results for the EC50 at Glucocorticoid Receptor and on human GR (Table 1) were 728 nM and 812 nM, respectively. Also, the “GITAR Greater than by GRAMMER % SEP” value at human GR (Table 1) came to 12.4%. This molecule also returned a Ki in assay [1] of 1 nM.

`CC(O)CN(CC(C)O)C(=O)[C@H]1CCC2=Cc3c(cnn3-c3ccc(F)cc3)C[C@@]21C` (stereo partly drawn) [Compound 10, (4αR,5S)-1-(4-fluorophenyl)-N,N-bis(2-hydroxypropyl)-4α-methyl-1,4,4α,5,6,7-hexahydrocyclopenta[f]indazole-5-carboxamide]: the Emax was 40.8% on Glucocorticoid Receptor, 59.8% at human GR (setting [2]) and above 5% at human GR (setting [3]). Besides, the EC50 on Glucocorticoid Receptor came out at 326 nM; on human GR (Table 1), 384 nM. Also, the “GITAR Greater than by GRAMMER % SEP” value at human GR (Table 1) stood at 19.0%. The molecule further yielded a Ki in assay [1] of 1.8 nM.

For `CC(C)CN(CC(C)C)C(=O)[C@H]1CCC2=Cc3c(cnn3-c3ccc(F)cc3)C[C@@]21C` [Compound 11, (4αR,5S)-1-(4-fluorophenyl)-N,N-diisobutyl-4α-methyl-1,4,4α,5,6,7-hexahydrocyclopenta[f]indazole-5-carboxamide], the Emax on Glucocorticoid Receptor was 45.3%; on human GR (setting [2]), 67.5%; on human GR (setting [3]) it was above 5%. Also, the values for the EC50 at Glucocorticoid Receptor and at human GR (Table 1) were 177 nM and 328 nM, respectively. Moreover, the “GITAR Greater than by GRAMMER % SEP” value at human GR (Table 1) is on record as 22.2%. This molecule also registered a Ki in assay [1] of 1.7 nM.

As for `CCCCN(CC)C(=O)[C@H]1CCC2=Cc3c(cnn3-c3ccc(F)cc3)C[C@@]21C` [Compound 12, (4αR,5S)-N-butyl-N-ethyl-1-(4-fluorophenyl)-4α-methyl-1,4 ,4α,5,6,7-hexahydrocyclopenta[f]indazole-5-carboxamide], the Emax at Glucocorticoid Receptor was 29.7%; on human GR (setting [2]), 56.3%; on human GR (setting [3]) it was above 5%. In addition, the EC50 at Glucocorticoid Receptor is 376 nM; at human GR (Table 1), 662 nM. In addition, the “GITAR Greater than by GRAMMER % SEP” value at human GR (Table 1) is 26.6%. Further, in assay [1], the inhibition constant Ki was 1.4 nM.

Take `C[C@]12Cc3cnn(-c4ccc(F)cc4)c3C=C1CC[C@@H]2C(=O)N(CCC#N)CCC#N` [Compound 13, (4αR,5S)-N,N-bis(2-cyanoethyl)-1-(4-fluorophenyl)-4α-methyl-1,4,4α,5,6,7-hexahydrocyclopenta[f]indazole-5-carboxamide]: the Emax was 14.4% at Glucocorticoid Receptor, 28% on human GR (setting [2]) and above 5% at human GR (setting [3]). For the same molecule, the values for the EC50 on Glucocorticoid Receptor and on human GR (Table 1) were 519 nM and 1080 nM, respectively. Moreover, the “GITAR Greater than by GRAMMER % SEP” value at human GR (Table 1) was determined as 13.6%. In addition, the Ki in assay [1] was determined as 35.3 nM.

For the molecule `C[C@]12Cc3cnn(-c4ccc(F)cc4)c3C=C1CC[C@@H]2C(=O)N(CCC#N)C1CC1` [Compound 14, (4αR,5S)-N-(2-cyanoethyl)-N-cyclopropyl-1-(4-fluorophenyl)-4α-methyl-1,4,4α,5,6,7-hexahydrocyclopenta[f]indazole-5-carboxamide], the Emax at Glucocorticoid Receptor was 11.2%; on human GR (setting [2]), 38.3%; at human GR (setting [3]), above 5%. For the same molecule, the EC50 at Glucocorticoid Receptor was found to be 1420 nM; at human GR (Table 1), 1590 nM. In addition, at human GR (Table 1), the “GITAR Greater than by GRAMMER % SEP” value is listed as 27.1%. For the same molecule, in assay [1], the Ki was found to be 10.8 nM.
